Data taken from PMC10257196 (Journal of Pharmaceutical Analysis, 2023).

Molecular target: alkyladenine DNA glycosylase (AAG) (Homo sapiens, UniProt P29372)
Assay: TRES coupled AAG/APE1 activity assay at […]
Assay type: biochemical
Details: read-out: % inhibition at 10 μM

alkyladenine DNA glycosylase (AAG), sequence (P29372 18-298): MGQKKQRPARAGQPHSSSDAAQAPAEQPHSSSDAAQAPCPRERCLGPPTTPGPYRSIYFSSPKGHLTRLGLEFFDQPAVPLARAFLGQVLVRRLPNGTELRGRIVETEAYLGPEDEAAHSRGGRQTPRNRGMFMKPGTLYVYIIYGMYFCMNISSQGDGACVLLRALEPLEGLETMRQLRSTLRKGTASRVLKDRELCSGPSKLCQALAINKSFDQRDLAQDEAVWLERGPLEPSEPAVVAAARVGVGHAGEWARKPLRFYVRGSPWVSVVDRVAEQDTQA

inhibition at 10 µM: 77.5%
SMILES: O=c1c(O)c(-c2ccc(O)cc2O)oc2cc(O)cc(O)c12 [morin]
